Literature values in patent US12263152B2, “Method of preventing and treating chemotherapy-induced alopecia” (JJR&D, LLC, priority 2022, dated 2025).
Read-outs that look alike come from different tables or passages of the source.

Tests used:
[1] = tested on: CIA; conditions: studies on humans
[2] = tested on: CIA; conditions: neonatal rat model
[3] = tested on: most commonly used alopecic chemotherapies; conditions: topical pretreatment, rats
[4] = tested on: alopecia
[5] = tested on: cyclophosphamide-induced alopecia; conditions: animal studies

## Cl[TeH]1(Cl)(Cl)OCCO1 [AS101]
[1]
  Protective role against CIA: protective role
[2]
  Protective role against CIA: protective role

## C=C1/C(=C\C=C2/CCC[C@]3(C)[C@@H]([C@H](C)CCCC(C)(C)O)CC[C@@H]23)C[C@@H](O)C[C@@H]1O [Calcitriol, 1,25-(OH)2D3]
[3]
  Protection from the most commonly used alopecic chemotherapies: protected
[4]; Week 7, of 23 female patients, topical 5-80 μg/mL twice daily
  Patients with alopecia of <50% from baseline: 8 patients
[4]; Week 15, of 23 female patients, topical 5-80 μg/mL twice daily
  Patients with <50% alopecia maintained: 2 patients
[4]; topical drug product, dose escalation up to 80 μg/mL twice daily
  Maximum tolerated dose: not reached

## epidermal growth factor
[5]
  Protection from cyclophosphamide (CTX)-induced alopecia: lack of protection

## recombinant interleukin 1 β: recombinant interleukin 1 β
[5]
  Protection from cyclophosphamide (CTX)-induced alopecia: lack of protection
